Measurements taken from patent US5508383A, “Cyclic peptide LHRH antagonists” (Tap Holdings Inc., priority 1994, dated 1996).
Where a SMILES comes first, the peptide text is derived from it. Bridges are numbered along the chain shown (N, C = ends). [ ]: non-standard residue; d: D form. The star is where a group is joined. Propanoyl(3-(4-Cl-Ph)) = O=C(CCc1ccc(Cl)cc1)*; Phenylacetyl(4-F) = O=C(Cc1ccc(F)cc1)*; Lys(iPr) = CC(C)NCCCC[C@H](N)C(=O)O; NMeY = CN[C@@H](Cc1ccc(O)cc1)C(=O)O; Nicotinoyl = O=C(c1cccnc1)*

Biological target: T1, LHRH (Rattus norvegicus, UniProt P30969)
T1 construct: endogenous in cells; host or cells: pituitary cells (own knowledge of the cited method)
T1 sequence (P30969 1-327): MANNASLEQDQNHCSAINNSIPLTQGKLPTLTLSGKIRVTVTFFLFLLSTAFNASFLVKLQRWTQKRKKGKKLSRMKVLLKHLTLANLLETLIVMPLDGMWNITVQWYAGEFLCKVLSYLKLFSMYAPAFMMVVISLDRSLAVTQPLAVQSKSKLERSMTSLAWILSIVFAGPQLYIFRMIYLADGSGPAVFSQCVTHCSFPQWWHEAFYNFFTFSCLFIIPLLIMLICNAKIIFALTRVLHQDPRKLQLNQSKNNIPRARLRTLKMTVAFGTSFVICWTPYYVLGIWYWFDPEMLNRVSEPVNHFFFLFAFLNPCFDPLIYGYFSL
Test: in vitro test for LHRH antagonist potency (pA2), shift of the leuprolide response curve
Type: cell-based
Conditions: negative logarithm of antagonist concentration required to shift the response curve produced by the agonist leuprolide to two-fold higher concentration
Protocol: Representative compounds of the present invention were evaluated in an in vitro test for LHRH antagonist potency (pA2). The test employed the method detailed in F. Haviv, et al. J. Med. Chem., 32: 2340-2344 (1989). The values of pA2 are the negative logarithms of the concentration of the particular antagonist test compound required to shift the response curve produced by the agonist leuprolide to two-fold higher concentration. (Leuprolide is the LHRH agonist having the structure 5-oxo-Pro^1 -His^2 -Trp^3 -Ser^4 -Tyr^5 -D-Leu^6 -Leu^7 -Arg^8 -Pro-^9 -NHEt and is disclosed and claimed in U.S. Pat. No. 4,005,063.) Typically pA2 values of 6.0 or greater are indicative of acceptable LHRH antagonist potency, with compounds having pA2 values of 9.0 or greater being preferred.

**Q.** With “4FPhenylacetyl-c-{DGlu-Ser-NMeTyr-DLys(Nicotinyl)-Leu-Lys(N-epsilon-Isopropyl)-Pro-DLys}-NH2 [Example 15]” as the compound, how does the pA2 read?
**A.** 5.66

**Q.** How did the Kb turn out when `CC(=O)N[C@@H]1CCCCNC(=O)CC[C@H](C(N)=O)NC(=O)[C@@H]2CCCN2C(=O)[C@H](CCCCNC(C)C)NC(=O)[C@H](CC(C)C)NC(=O)[C@@H](CCCCNC(=O)c2cccnc2)NC(=O)[C@H](Cc2ccc(O)cc2)N(C)C(=O)[C@H](CO)NC1=O` [Example 9, Ac-c-{DLys-Ser-NMeTyr-DLys(Nicotinyl)-Leu-Lys(N-epsilon-Isopropyl)-Pro-DGlu}-NH2] (Ac-[dK]S[NMeY][dK](Nicotinoyl)L[Lys(iPr)]P[dE]-NH2; lactam 1-8) was run?
**A.** 6.17 nM

**Q.** Which Kb does the source give for `CC(C)C[C@@H]1NC(=O)[C@@H](CCCCNC(=O)c2cccnc2)NC(=O)[C@H](Cc2ccc(O)cc2)N(C)C(=O)[C@H](CO)NC(=O)[C@H](NC(=O)Cc2ccc(F)cc2)CCCCNC(=O)CC[C@H](C(N)=O)NC(=O)[C@@H]2CCCN2C(=O)[C@H](CCCCNC(C)C)NC1=O` [Example 10, 4F-Phenylacetyl-c-{DLys-Ser-NMeTyr-DLys(Nicotinyl)-Leu-Lys(N-epsilon-Isopropyl)-Pro-DGlu}-NH2] ({Phenylacetyl(4-F)}-[dK]S[NMeY][dK](Nicotinoyl)L[Lys(iPr)]P[dE]-NH2; lactam 1-8) here?
**A.** 724 nM

**Q.** `CC(=O)N[C@@H]1CCC(=O)NCCCC[C@H](C(N)=O)NC(=O)[C@@H]2CCCN2C(=O)[C@H](CCCCNC(C)C)NC(=O)[C@H](CC(C)C)NC(=O)[C@@H](CCCCNC(=O)c2cccnc2)NC(=O)[C@H](Cc2ccc(O)cc2)N(C)C(=O)[C@H](CO)NC1=O` [Example 11, Ac-c-{DGlu-Ser-NMeTyr-DLys(Nicotinyl)-Leu-Lys(N-epsilon-Isopropyl)-Pro-DLys}-NH2] (Ac-[dE]S[NMeY][dK](Nicotinoyl)L[Lys(iPr)]P[dK]-NH2; lactam 1-8) was tested. Which Kb did it give?
**A.** 20.4 nM

**Q.** For `CC(C)C[C@@H]1NC(=O)[C@@H](CCCCNC(=O)c2cccnc2)NC(=O)[C@H](Cc2ccc(O)cc2)N(C)C(=O)[C@H](CO)NC(=O)[C@H](NC(=O)CCc2ccc(Cl)cc2)CCCCNC(=O)CC[C@H](C(N)=O)NC(=O)[C@@H]2CCCN2C(=O)[C@H](CCCCNC(C)C)NC1=O` [Example 13, 4ClPhenylpropionyl-c-{DLys-Ser-NMeTyr-DLys(Nicotinyl)-Leu-Lys(N-epsilon-Isopropyl)-Pro-DGlu}-NH2] ({Propanoyl(3-(4-Cl-Ph))}-[dK]S[NMeY][dK](Nicotinoyl)L[Lys(iPr)]P[dE]-NH2; lactam 1-8), which Kb is on record?
**A.** 19.1 nM

**Q.** How did the Kb turn out when `CC(C)C[C@@H]1NC(=O)[C@@H](CCCCNC(=O)c2cccnc2)NC(=O)[C@H](Cc2ccc(O)cc2)N(C)C(=O)[C@H](CO)NC(=O)[C@H](NC(=O)CCc2ccc(Cl)cc2)CCCCNC(=O)CC[C@H](C(N)=O)NC(=O)CNC(=O)[C@H](CCCCNC(C)C)NC1=O` [Example 16, 4ClPhenylpropionyl-c-{DLys-Ser-NMeTyr-DLys(Nicotinyl)-Leu-Lys(N-epsilon-Isopropyl)-Gly-DGlu}-NH2] ({Propanoyl(3-(4-Cl-Ph))}-[dK]S[NMeY][dK](Nicotinoyl)L[Lys(iPr)]G[dE]-NH2; lactam 1-8) was run?
**A.** 40.7 nM

**Q.** Which Kb does the source give for `CC(C)C[C@@H]1NC(=O)[C@@H](CCCCNC(=O)c2cccnc2)NC(=O)[C@H](Cc2ccc(O)cc2)N(C)C(=O)CNC(=O)[C@H](NC(=O)CCc2ccc(Cl)cc2)CCCCNC(=O)CC[C@H](C(N)=O)NC(=O)CNC(=O)[C@H](CCCCNC(C)C)NC1=O` [Example 18, 4ClPhepropionyl-c-{DLys-Gly-NMeTyr-DLys(Nicotinyl)-Leu-Lys(N-epsilon-Isopropyl)-Gly-DGlu}-NH2] ({Propanoyl(3-(4-Cl-Ph))}-[dK]G[NMeY][dK](Nicotinoyl)L[Lys(iPr)]G[dE]-NH2; lactam 1-8) here?
**A.** > 1000 nM

**Q.** Which pA2 does the source give for “Ac-D2Nal-D4ClPhe-c-{DGlu-Ser-NMeTyr-DLys(Nicotinyl)-Leu-Lys(N-epsilon-Isopropyl)-Pro-DLys}-NH2 [Example 7]” here?
**A.** 9.58

**Q.** With “Ac-D2Nal-D4ClPhe-c-{DGlu-Ser-NMeTyr-DLys(Nicotinyl)-Leu-Lys(N-epsilon-Isopropyl)-Pro-Lys}-NH2 [Example 12]” as the compound, how does the pA2 read?
**A.** 9.77

**Q.** Which pA2 does the source give for “Ac-D2Nal-D4ClPhe-c-{DLys-Ser-NMeTyr-DLys(Nicotinyl)-Leu-Lys(N-epsilon-Isopropyl)-Pro-DGlu}-NH2 [Example 1]” here?
**A.** 10.16

**Q.** For “Ac-D2Nal-D4ClPhe-c-{DLys-Ser-NMeTyr-DLys(Nicotinyl)-Leu-Lys(N-epsilon-Isopropyl)-Pro-Glu}-NH2 [Example 4]”, which pA2 is on record?
**A.** 10.05

**Q.** Which pA2 does the source give for “Ac-D2Nal-D4ClPhe-c-{DLys-Ser-Tyr-DLys(Nicotinyl)-Leu-Lys(N-epsilon-Isopropyl)-Pro-DGlu}-NH2 [Example 8]” here?
**A.** 9.66

**Q.** “Ac-D2Nal-D4ClPhe-c-{DLys-Ser-Tyr-DLys(Nicotinyl)-Leu-Lys(N-epsilon-Isopropyl)-Pro-Glu}-NH2 [Example 2]” was tested. Which pA2 did it give?
**A.** 9.27

**Q.** “Ac-D2Nal-D4ClPhe-c-{DOrn-Ser-NMeTyr-DLys(Nicotinyl)-Leu-Lys(N-epsilon-Isopropyl)-Pro-DGlu}-NH2 [Example 14]” was tested. Which pA2 did it give?
**A.** 9.52

**Q.** For “Ac-D2Nal-D4ClPhe-c-{Glu-Ser-NMeTyr-DLys(Nicotinyl)-Leu-Lys(N-epsilon-Isopropyl)-Pro-DOrn}-NH2 [Example 6]”, which pA2 is on record?
**A.** 7.54

**Q.** “Ac-D2Nal-D4ClPhe-c-{Lys-Ser-NMeTyr-DLys(Nicotinyl)-Leu-Lys(N-epsilon-Isopropyl)-Pro-DGlu}-NH2 [Example 3]” was tested. Which pA2 did it give?
**A.** 8.73

**Q.** How did the pA2 turn out when “Ac-D2Nal-D4ClPhe-c-{Lys-Ser-NMeTyr-DLys(Nicotinyl)-Leu-Lys(N-epsilon-Isopropyl)-Pro-Glu}-NH2 [Example 5]” was run?
**A.** 8.2

**Q.** “NAc-D2Nal D4ClPhe-c-{DLys-Gly-NMeTyr-DLys(Nicotinyl)-Leu-Lys(N-epsilon-Isopropyl)-Gly-DGlu}-NH2 [Example 17]” was tested. Which pA2 did it give?
**A.** 8.29

**Q.** With “NAc-c-{DGlu-Gly-NMeTyr-DLys(Nicotinyl)-Leu-Lys(N-epsilon-Isopropyl)-Sar-DLys}-NH2 [Example 19]” as the compound, how does the pA2 read?
**A.** 5.95
